This assay deals with HSPC-pDCs. Kind of assay: Phenotypic analysis of pDC surface markers by flow cytometry. It is filed as cell-based, human. Conditions: pDCs isolated from AA-supplemented culture at day 16. The protocol:
Flow cytometry was used to immunophenotype pDCs. Briefly, cells were spun down and resuspended in 100 μL PBS. Cells were stained with Ghost Dye Red 780 Viability Dye (13-0865, Tonbo) for 30 min before being washed with FACS buffer (PBS with 2% FCS and 1 mM EDTA). Cells were subsequently resuspended in 50 μL FACS buffer and stained with the following antibodies: FITC anti-human Lineage Cocktail (CD3 (UCHT1), CD14 (HCD14), CD16 (3G8), CD19 (HIB19), CD20 (2H7) and CD56 (HCD56), 348801, BioLegend), APC anti-human CD11c (3.9, 20-0116-T100, TonboBio), PE anti-human CD123 (6H6, 12-1239-42, eBioscience), PE-Cy7 anti-human CD303 (201a, 25-9818-42, eBioscience). Cells were stained for 30 min before being washed three times in FACS buffer. To validate the expression CD34+ on HSPCs, cells were stained with PE-Cy7 anti-human CD34 (581, 343516, BioLegend) for 30 min, washed three times in FACS buffer before being resuspended in FACS buffer. PI was added to the cells as a viability dye in a concentration of 1:100 (13-6990 Tonbo Bioscience). Fluorescence intensities were measured using the Quanteon flow cytometer equipped with 4 lasers (405 nm, 488 nm, 561 nm, and 637 nm) and 29 photomultipliers (PMT) detectors or the NovoCyte flow cytometer with two lasers (488 nm and 561 nm) and 12 PMT detectors (ACEA Biosciences, Inc.). Data analysis was done using FlowJo (Version 10, Tree Star, Ashland, OR, USA). […]

For `O=C1O[C@H]([C@@H](O)CO)C(O)=C1O` [ascorbic acid], the “surface expression levels of CD303” value is listed as “lower expression levels”.

(Values after US20240141294A1, “CGMP COMPLIANT PRODUCTION AND EXPANSION OF PLASMACYTOID DENDRITIC CELLS FROM HEMATOPOIETIC STEM AND PROGENITOR CELLS” (AARHUS UNIVERSITET, priority 2021, published 2024).)
